Laboratory results published in ChEMBL document CHEMBL1201862, “PubChem BioAssay data set” (2004).
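Briefly, cells in 96-well plates were exposed to five compound concentrations for 48 h, and endpoints were estimated by linear interpolation. The concentration for 50% growth inhibition is given as GI50.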 Calls of active or inactive are those of the source. No stated cut-off is given here; in the data, active = GI50 up to about 1.1 µM and inactive = higher.

What was measured:
Test in all cases: NCI tumour cell line growth inhibition, 48 h
DLD-1 = system: DLD-1
OVCAR-8 = system: OVCAR-8
786-0 = system: 786-0
TK-10 = system: TK-10
NCI-H226 = system: NCI-H226
UACC-257 = system: UACC-257
SN12C = system: SN12C
OVCAR-4 = system: OVCAR-4
HL-60 = system: HL-60
U-251 = system: U-251
SK-MEL-2 = system: SK-MEL-2
XF498 = system: XF498
LOX IMVI = system: LOX IMVI
SK-MEL-5 = system: SK-MEL-5
IGROV-1 = system: IGROV-1
M14 = system: M14
A549 = system: A549
SNB-19 = system: SNB-19
SF-268 = system: SF-268
SF-539 = system: SF-539
SNB-75 = system: SNB-75
KM12 = system: KM12
UACC-62 = system: UACC-62
NCI-H460 = system: NCI-H460
LXFL 529 = system: LXFL 529
OVCAR-5 = system: OVCAR-5
COLO 205 = system: COLO 205
HT-29 = system: HT-29
UO-31 = system: UO-31
M19-MEL = system: M19-MEL
RXF 631 = system: RXF 631
SK-OV-3 = system: SK-OV-3
MOLT-4 = system: MOLT-4
K562 = system: K562
HCC 2998 = system: HCC 2998
SK-MEL-28 = system: SK-MEL-28
HOP-62 = system: HOP-62
NCI-H522 = system: NCI-H522
DMS-273 = system: DMS-273
RPMI-8226 = system: RPMI-8226
OVCAR-3 = system: OVCAR-3
HOP-92 = system: HOP-92
SF-295 = system: SF-295
HCT-15 = system: HCT-15
CCRF-CEM = system: CCRF-CEM
RXF 393 = system: RXF 393
ACHN = system: ACHN
CAKI-1 = system: CAKI-1
EKVX = system: EKVX
Malme-3M = system: Malme-3M
SW-620 = system: SW-620
SNB-78 = system: SNB-78
NCI-H23 = system: NCI-H23
DMS-114 = system: DMS-114
HCT-116 = system: HCT-116
KM-20L2 = system: KM-20L2
A498 = system: A498

CCCC1C(=O)C(CC)Cc2c(OC)ccc(OC)c21 (stereo unspecified)
GI50 (DLD-1): > 100 µM (inactive) | GI50 (OVCAR-8): > 100 µM (inactive) | GI50 (786-0): > 100 µM (inactive) | GI50 (TK-10): > 100 µM (inactive) | GI50 (NCI-H226): > 100 µM (inactive) | GI50 (UACC-257): > 100 µM (inactive) | GI50 (SN12C): > 100 µM (inactive) | GI50 (OVCAR-4): > 100 µM (inactive) | GI50 (HL-60): > 100 µM (inactive) | GI50 (U-251): > 100 µM (inactive) | GI50 (SK-MEL-2): > 100 µM (inactive) | GI50 (XF498): > 100 µM (inactive) | GI50 (LOX IMVI): > 100 µM (inactive) | GI50 (SK-MEL-5): > 100 µM (inactive) | GI50 (IGROV-1): > 100 µM (inactive) | GI50 (M14): > 100 µM (inactive) | GI50 (A549): > 100 µM (inactive) | GI50 (SNB-19): > 100 µM (inactive) | GI50 (SF-268): > 100 µM (inactive) | GI50 (SF-539): > 100 µM (inactive) | GI50 (SNB-75): > 100 µM (inactive) | GI50 (KM12): > 100 µM (inactive) | GI50 (UACC-62): > 100 µM (inactive) | GI50 (NCI-H460): > 100 µM (inactive) | GI50 (LXFL 529): > 100 µM (inactive) | GI50 (OVCAR-5): > 100 µM (inactive) | GI50 (COLO 205): > 100 µM (inactive) | GI50 (HT-29): > 100 µM (inactive) | GI50 (UO-31): > 100 µM (inactive) | GI50 (M19-MEL): > 100 µM (inactive) | GI50 (RXF 631): > 100 µM (inactive) | GI50 (SK-OV-3): > 100 µM (inactive) | GI50 (MOLT-4): > 100 µM (inactive) | GI50 (K562): > 100 µM (inactive) | GI50 (HCC 2998): > 100 µM (inactive) | GI50 (SK-MEL-28): > 100 µM (inactive) | GI50 (HOP-62): > 100 µM (inactive) | GI50 (NCI-H522): > 100 µM (inactive) | GI50 (DMS-273): > 100 µM (inactive) | GI50 (RPMI-8226): > 100 µM (inactive) | GI50 (OVCAR-3): > 100 µM (inactive) | GI50 (HOP-92): > 100 µM (inactive) | GI50 (SF-295): > 100 µM (inactive) | GI50 (HCT-15): > 100 µM | GI50 (CCRF-CEM): > 100 µM (inactive) | GI50 (RXF 393): > 100 µM (inactive) | GI50 (ACHN): > 100 µM (inactive) | GI50 (CAKI-1): > 100 µM (inactive) | GI50 (EKVX): > 100 µM (inactive) | GI50 (Malme-3M): > 100 µM (inactive) | GI50 (SW-620): > 100 µM (inactive) | GI50 (SNB-78): > 100 µM (inactive)

C[Si](C)(C)[C@@]1([Se]c2ccccc2)CC[C@@H]1C(=O)c1ccccc1
GI50 (DLD-1): 77.4 µM (inactive) | GI50 (OVCAR-8): 50.5 µM (inactive) | GI50 (786-0): > 100 µM (inactive) | GI50 (TK-10): > 100 µM (inactive) | GI50 (NCI-H226): 40.2 µM (inactive) | GI50 (UACC-257): 40.6 µM (inactive) | GI50 (SN12C): 61.4 µM (inactive) | GI50 (OVCAR-4): 67.9 µM (inactive) | GI50 (U-251): 83.8 µM (inactive) | GI50 (SK-MEL-2): 23.7 µM (inactive) | GI50 (LOX IMVI): 35.9 µM (inactive) | GI50 (SK-MEL-5): 18.5 µM (inactive) | GI50 (IGROV-1): > 100 µM (inactive) | GI50 (M14): 80.4 µM (inactive) | GI50 (A549): 56.2 µM (inactive) | GI50 (SNB-19): 35.8 µM (inactive) | GI50 (SF-268): 28.8 µM (inactive) | GI50 (SF-539): 62.7 µM (inactive) | GI50 (SNB-75): 61 µM (inactive) | GI50 (KM12): 44.9 µM (inactive) | GI50 (UACC-62): 71.4 µM (inactive) | GI50 (NCI-H460): 98.9 µM (inactive) | GI50 (LXFL 529): 65.6 µM (inactive) | GI50 (OVCAR-5): > 100 µM (inactive) | GI50 (NCI-H23): 33.7 µM (inactive) | GI50 (COLO 205): > 100 µM (inactive) | GI50 (DMS-114): 38.5 µM (inactive) | GI50 (HT-29): 42.3 µM (inactive) | GI50 (HCT-116): 33.6 µM (inactive) | GI50 (UO-31): 32.3 µM (inactive) | GI50 (M19-MEL): 32.5 µM (inactive) | GI50 (KM-20L2): 71.8 µM (inactive) | GI50 (RXF 631): > 100 µM (inactive) | GI50 (SK-OV-3): > 100 µM (inactive) | GI50 (MOLT-4): 21.3 µM (inactive) | GI50 (K562): 34.5 µM (inactive) | GI50 (HCC 2998): 32.6 µM (inactive) | GI50 (SK-MEL-28): 55.2 µM (inactive) | GI50 (HOP-62): > 100 µM (inactive) | GI50 (A498): > 100 µM (inactive) | GI50 (NCI-H522): 23.7 µM (inactive) | GI50 (DMS-273): 59.3 µM (inactive) | GI50 (RPMI-8226): 20.1 µM (inactive) | GI50 (OVCAR-3): 84.1 µM (inactive) | GI50 (SF-295): 51.3 µM (inactive) | GI50 (HCT-15): 45.8 µM | GI50 (CCRF-CEM): 27.7 µM (inactive) | GI50 (RXF 393): 19 µM (inactive) | GI50 (ACHN): 54 µM (inactive) | GI50 (CAKI-1): 72.1 µM (inactive) | GI50 (EKVX): 49.3 µM (inactive) | GI50 (Malme-3M): 70 µM (inactive) | GI50 (SW-620): 53 µM (inactive) | GI50 (SNB-78): > 100 µM (inactive)
